{
  "source": "patent US8163931B2",
  "about": "“Treatment of CRTH2-mediated diseases and conditions” (Oxagen Limited, priority 2003, dated 2012)",
  "key": {"[1]": {"target": "T1, CRTH2 (Homo sapiens, UniProt Q9Y5Y4)", "T1 construct": "expressed in transfected cells; host or cells: Chinese Hamster Ovary (CHO) cells, G418-selected (CHO/CRTH2)", "T1 sequence (Q9Y5Y4 1-395)": "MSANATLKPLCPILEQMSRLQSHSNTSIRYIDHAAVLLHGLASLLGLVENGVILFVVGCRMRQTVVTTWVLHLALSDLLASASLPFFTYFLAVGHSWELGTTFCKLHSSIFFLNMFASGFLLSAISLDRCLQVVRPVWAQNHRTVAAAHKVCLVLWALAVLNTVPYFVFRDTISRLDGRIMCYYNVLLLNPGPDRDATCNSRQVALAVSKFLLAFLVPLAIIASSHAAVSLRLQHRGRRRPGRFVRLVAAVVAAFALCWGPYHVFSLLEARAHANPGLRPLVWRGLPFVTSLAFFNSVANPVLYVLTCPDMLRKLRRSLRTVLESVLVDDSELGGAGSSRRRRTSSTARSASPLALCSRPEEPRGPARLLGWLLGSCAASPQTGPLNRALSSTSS", "experiment": "Calcium mobilisation assay in CHO/CRTH2 cells (PGD2-induced calcium flux)", "assay_type": "cell-based", "conditions": "for IC50: read-out: IC50, inhibition of PGD2-induced calcium flux", "method": "(§1) Chinese Hamster Ovary cells were transfected with CRTH2 or DP receptors (CHO/CRTH2 and CHO/DP) and were maintained in culture in a humidified atmosphere at 37° C. (5% CO2) in Minimum Essential Medium (MEM) supplemented with 10% foetal bovine serum, 2 mM glutamine, and 1 mg ml^−1 active G418. The cells were passaged every 2-3 days. For radioligand binding assay, cells were prepared in triple-layer flasks or in 175 cm^2 square flasks (for membrane preparation). For calcium mobilisation assay, cells were grown in a 96 well plate 24 h prior to the assay at a density of 80,000 cells per well.\nCells were seeded onto poly-D-lysine coated 96-well plates at a density of 80,000 cells per well and incubated at 37° C. overnight to allow the cells to adhere. Cells were washed twice with HBSS and incubated for 1 h at 37° C. in 100 μl HBSS and 100 μl calcium-3-dye (Molecular Devices), supplemented with 4 mM probenecid. Changes in fluorescence were monitored over a 50 s time course with agonist addition at 17 s using a Flexstation (Molecular Devices)."}, "[2]": {"target": "T1, CRTH2", "experiment": "[3H]PGD2 radioligand binding on CHO/CRTH2 cell membranes", "conditions": "competition versus [3H]PGD2, CHO/CRTH2 membranes", "method": "as §1\n(§2) Membranes were prepared either from CHO/CRTH2 and CHO/DP cells, or from platelets (as a source of TP receptors). CHO cells grown to confluency were washed with PBS and detached using a Versene solution (15 ml per flask). When the cells were grown in 175 cm^2 square flask, they were collected by scrapping in PBS. The cell suspensions were centrifuged (1,700 rpm, 10 min, 4° C.) and resuspended in 15 ml of buffer (1×HBSS, supplemented with 10 mM HEPES, pH 7.3). Cell suspensions were then homogenised using an Ultra Turrax at setting 4-6 for 20 s. The homogenate was centrifuged at 1,700 rpm for 10 min and the supernatant was collected and centrifuged at 20,000 rpm for 1 h at 4° C. The resulting pellet was resuspended in buffer and stored at −80° C. in aliquots of 200-500 μl. The protein concentration was determined by the method of Bradford (1976), using bovine serum albumin as standard. The platelets were washed by centrifugation at 600×g for 10 min and resuspended in ice-cold assay buffer (10 mM Tris-HCl, pH 7.4, 5 mM Glucose, 120 mM NaCl, 10 μM indomethacin) and directly centrifuged at 20,000 rpm for 30 min at 4° C. The resulting pellet was treated as described above.\n(§3) [^3H]PGD2 (160 Ci/mmol) binding experiments were performed on membranes prepared as described above. Assays were performed in a final volume of 100 μl of buffer (1×HBSS/HEPES 10 mM, pH 7.3). Cell membranes (15 μg). Cell membranes […] were preincubated at room temperature with varying concentration of competing ligand for 15 min. [^3H]PGD2 (mol, final concentration) was then added and the incubation continued for a further one hour at room temperature. The reaction was terminated by the addition of 200 μl ice-cold assay buffer to each well, followed by rapid filtration through Whatman GF/B glass fibre filters using a Unifilter Cell harvester (PerkinElmer Life Sciences) and six washes of 300 μl of ice-cold buffer. The Unifilter plates were dried at room temperature for at least 1 h and the radioactivity retained on the filters was determined on a Beta Trilux counter (PerkinElmer Life Sciences), following addition of 40 μl of Optiphase Hi-Safe 3 (Wallac) liquid scintillation. Non specific binding was defined in the presence of 10 μM unlabelled PGD2. Assays were performed in duplicate."}, "[3]": {"target": "T2, DP receptor (Homo sapiens, UniProt Q13258)", "T2 construct": "expressed in transfected cells; host or cells: Chinese Hamster Ovary (CHO) cells, G418-selected (CHO/DP)", "T2 sequence (Q13258 1-359)": "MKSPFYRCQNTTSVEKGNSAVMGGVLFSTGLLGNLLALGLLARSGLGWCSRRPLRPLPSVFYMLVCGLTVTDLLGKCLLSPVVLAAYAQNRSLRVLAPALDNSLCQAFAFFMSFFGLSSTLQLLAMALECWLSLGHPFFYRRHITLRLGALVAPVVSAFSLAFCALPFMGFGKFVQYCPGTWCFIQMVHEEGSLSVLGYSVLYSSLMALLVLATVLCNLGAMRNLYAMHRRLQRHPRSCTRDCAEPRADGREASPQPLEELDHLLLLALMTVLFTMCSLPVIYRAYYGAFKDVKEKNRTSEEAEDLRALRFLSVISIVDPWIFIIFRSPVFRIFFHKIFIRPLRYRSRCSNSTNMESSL", "experiment": "[3H]PGD2 radioligand binding on CHO/DP cell membranes", "conditions": "competition versus [3H]PGD2, CHO/DP membranes", "method": "as §1, §2, §3"}},
  "data": [
    {"smiles": "Cc1c(C(C)c2nc3ccccc3s2)c2cc(F)ccc2n1CC(=O)O", "note": "(racemic) [Compound 19, (±)-3-(1-Benzothiazol-2-yl-ethyl)-5-fluoro-2-methyl-indol-1-yl]-acetic acid]", "values": [
      {"measurement": "IC50", "setting": "[1]", "value": "34 ± 7", "unit": "nM"}
    ]},
    {"smiles": "Cc1c(C(C)c2ccc(S(C)(=O)=O)cc2)c2cc(F)ccc2n1CC(=O)O", "note": "(stereo not shown) [Compound 4, {5-Fluoro-3-[1-(4-methanesulfonyl-phenyl)-ethyl]-2-methyl-indol-1-yl}-acetic acid]", "values": [
      {"measurement": "Ki", "setting": "[2]", "value": "5 ± 4", "unit": "nM"},
      {"measurement": "IC50", "setting": "[1]", "value": "55 ± 18", "unit": "nM"},
      {"measurement": "Ki", "setting": "[3]", "value": "30400 ± 9810", "unit": "nM"}
    ]},
    {"smiles": "Cc1c(Cc2ccc3ccccc3n2)c2cc(F)ccc2n1CC(=O)O", "note": "[Compound 6, (5-Fluoro-2-methyl-3-quinolin-2-ylmethyl-indol-1-yl)-acetic acid]", "values": [
      {"measurement": "Ki", "setting": "[3]", "value": "17900 ± 7290", "unit": "nM"}
    ]},
    {"smiles": "Cc1c(Cc2ccc3ccccc3c2)c2cc(F)ccc2n1CC(=O)O", "note": "[Compound 7, (5-Fluoro-2-methyl-3-naphthalen-2-ylmethyl-indol-1-yl)-acetic acid]", "values": [
      {"measurement": "IC50", "setting": "[1]", "value": "38 ± 16", "unit": "nM"}
    ]},
    {"smiles": "Cc1c(Cc2ccc3cccc(O)c3n2)c2cc(F)ccc2n1CC(=O)O", "note": "[Compound 8, [5-Fluoro-3-(8-hydroxy-quinolin-2-ylmethyl)-2-methyl-indol-1-yl]-acetic acid]", "values": [
      {"measurement": "Ki", "setting": "[2]", "value": "6 ± 4", "unit": "nM"},
      {"measurement": "IC50", "setting": "[1]", "value": "11 ± 6", "unit": "nM"},
      {"measurement": "Ki", "setting": "[3]", "value": "7710 ± 1780", "unit": "nM"}
    ]},
    {"smiles": "COc1ccc(Cc2c(C)n(CC(=O)O)c3ccc(F)cc23)cc1", "note": "[Compound 10, [5-Fluoro-3-(4-methoxy-benzyl)-2-methyl-indol-1-yl]-acetic acid]", "values": [
      {"measurement": "IC50", "setting": "[1]", "value": "47 ± 8", "unit": "nM"}
    ]},
    {"smiles": "Cc1c(Cc2ccc(Cl)cc2)c2cc(F)ccc2n1CC(=O)O", "note": "[Compound 12, [3-(4-Chloro-benzyl)-5-fluoro-2-methyl-indol-1-yl]-acetic acid]", "values": [
      {"measurement": "Ki", "setting": "[2]", "value": "11 ± 2", "unit": "nM"},
      {"measurement": "IC50", "setting": "[1]", "value": "108 ± 29", "unit": "nM"},
      {"measurement": "Ki", "setting": "[3]", "value": "12200 ± 2250", "unit": "nM"}
    ]},
    {"smiles": "Cc1c(Cc2nc3ccccc3s2)c2cc(F)ccc2n1CC(=O)O", "note": "[Compound 13, (3-Benzothiazol-2-ylmethyl-5-fluoro-2-methyl-indol-1-yl)-acetic acid]", "values": [
      {"measurement": "Ki", "setting": "[2]", "value": "6 ± 1", "unit": "nM"}
    ]},
    {"smiles": "Cc1c(Cc2ccc(S(C)(=O)=O)cc2)c2cc(F)ccc2n1CC(=O)O", "note": "[Compound 17, [5-Fluoro-3-(4-methanesulfonyl-benzyl)-2-methyl-indol-1-yl]-acetic acid]", "values": [
      {"measurement": "IC50", "setting": "[1]", "value": "64 ± 5", "unit": "nM"}
    ]},
    {"smiles": "Cc1c(Cc2ccc3cc(F)ccc3n2)c2cc(F)ccc2n1CC(=O)O", "note": "[Compound 18, [5-Fluoro-3-(6-fluoro-quinolin-2-ylmethyl)-2-methyl-indol-1-yl]-acetic acid]", "values": [
      {"measurement": "Ki", "setting": "[2]", "value": "1.3 ± 0.6", "unit": "nM"},
      {"measurement": "IC50", "setting": "[1]", "value": "10 ± 5", "unit": "nM"},
      {"measurement": "Ki", "setting": "[3]", "value": "7740 ± 1440", "unit": "nM"}
    ]},
    {"smiles": "O=C(O)Cn1cc(Cc2nc3c(F)c(F)cc(F)c3s2)c2ccccc21", "note": "[Compound 20, [3-(4,5,7-Trifluoro-benzothiazol-2-ylmethyl)-indol-1-yl]-acetic acid, reference compound]", "values": [
      {"measurement": "Ki", "setting": "[2]", "value": "886 ± 248", "unit": "nM"},
      {"measurement": "IC50", "setting": "[1]", "value": "885 ± 96", "unit": "nM"},
      {"measurement": "Ki", "setting": "[3]", "value": 3960, "unit": "nM"}
    ]},
    {"smiles": "CCCCC[C@H](O)/C=C/[C@H]1C(=O)C[C@H](O)[C@@H]1C/C=C\\CCCC(=O)O", "note": "[PGD2, prostaglandin D2, reference compound]", "values": [
      {"measurement": "EC50", "setting": "[1]; agonist, n=3, read-out: EC50, increase in intracellular Ca2+ mobilisation", "value": "2.4 ± 0.5", "unit": "nM"}
    ]}
  ]
}
